PMC10136361 (Biomolecules, 2023)

Key:
MmGSTP1-1 [1] = target: T1, MmGSTP1-1 (Mus musculus, UniProt P19157); assay: steady-state kinetics (Km); assay type: biochemical
T1 construct: gene Gstp1; recombinant MmGSTP1-1 (GenBank BC061109.1), expressed in E. coli

MmGSTP1-1 [2] = target: T1, MmGSTP1-1; assay: X-ray co-crystal structure, […] Å; assay type: binding
MmGSTP1-1 [3] = target: T1, MmGSTP1-1; assay: CDNB-GSH enzyme assay, single concentration […]; assay type: biochemical; conditions: read-out: % inhibition at 25 μM
MmGSTP1-1 [4] = target: T1, MmGSTP1-1; assay: CDNB-GSH enzyme assay at […] nm, inhibition kinetics (KiE, GSH varied); IC50 […]; assay type: biochemical

T1 sequence (P19157 2-210): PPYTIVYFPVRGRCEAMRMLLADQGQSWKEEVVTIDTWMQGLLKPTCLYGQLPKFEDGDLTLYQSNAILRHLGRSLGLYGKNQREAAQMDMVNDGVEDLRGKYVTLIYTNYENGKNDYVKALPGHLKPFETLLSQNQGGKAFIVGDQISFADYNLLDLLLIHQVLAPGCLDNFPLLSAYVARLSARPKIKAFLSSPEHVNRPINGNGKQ

Row | Structure (SMILES) | inhibition at 25 µM (MmGSTP1-1 [3]) [%] | also measured
1 | O=[N+]([O-])c1ccc(Cl)c([N+](=O)[O-])c1 [1-chloro-2,4-dinitrobenzene] |  | Km (MmGSTP1-1 [1]): 800 ± 40 µM
2 | N[C@@H](CCC(=O)N[C@@H](CSCc1ccc([N+](=O)[O-])cc1)C(=O)NCC(=O)O)C(=O)O [S-(p-nitrobenzyl)glutathione] |  | X-ray co-crystal structure, 1.28 Å (MmGSTP1-1 [2]): A molecule of Nb-GSH was found bound in the active site of each molecule of the dimer
3 | CC1(C)[C@H](C(=O)O[C@H](C#N)c2cccc(Oc3ccccc3)c2)[C@@H]1C=C(Br)Br [deltamethrin] | 82 | 
4 | CSC1=N[C@@](C)(c2ccccc2)C(=O)N1Nc1ccccc1 [fenamidone] | 53 | 
5 | CC(C)NC(=O)N1CC(=O)N(c2cc(Cl)cc(Cl)c2)C1=O [iprodione, 3-(3,5-dichlorophenyl)-2,4-dioxo-N-propan-2-ylimidazolidine-1-carboxamide] |  | Ki (MmGSTP1-1 [4]): 5.2 ± 0.1 µM
6 | Cc1cc(C)c(C2=C(OC(=O)CC(C)(C)C)C3(CCCC3)OC2=O)c(C)c1 [spiromesifen] | 70 | 
7 | O=S1OC[C@@H]2[C@H](CO1)[C@@]1(Cl)C(Cl)=C(Cl)[C@]2(Cl)C1(Cl)Cl (stereo partly drawn) [α-endosulfan] | 58 | 
